Data as given in US20070197453A1, “Compositions and methods for treatment of disorders of protein aggregation” (priority 2006, published 2007).
“Also recorded” adds a separate entry of the source. Marks after values point to notes of the source that are not given here.

What was measured:
TgCRND8 mice [1] = test: Morris Water Maze spatial reference memory test; type: in vivo, mouse
Description: (§1) Behavioural tests: Morris Water Maze testing was performed as previously described. After non-spatial pre-training, mice underwent place discrimination training for 5 days with 4-trials per day, followed by a cued visible platform to rule out general motivational, learning deficits and motor problems, and a probe trial to evaluate memory. […] Open field test for motor activity was preformed as described previously. Duration of walking, pausing and grooming were analyzed as indices of spontaneous locomotor activity. Sensorimotor function was examined with an Economex™ accelerating rotarod (Columbus Instruments, Columbus, Ohio), as described elsewhere. The rod was set to accelerate at a rate of 0.2 r.p.m./s, from an initial, constant speed of 5 r.p.m. Latency to fall was recorded in four daily trials, conducted at 30 min intervals. All mice were trained for seven days before testing. The test day performance score for each animal was obtained by summing its latency to fall over the four trials
Behavioural tests: Behavioural analyses were performed using the Morris Water Maze test (13, 14). After pre-spatial training, mice underwent place discrimination training for 5 days with 4 trials per day, followed by a cued visible platform to rule out general motivational, learning deficits and motor problems. […] Open field test for motor activity was performed as described previously. Duration of walking, pausing, rearing and grooming were analyzed as indices of spontaneous locomotor activity.

Aβ40 = target: T1, Aβ40 (Homo sapiens, UniProt P05067); test: Cerebral Aβ content: brain Aβ40 (ELISA kit); type: in vivo, mouse; conditions: TgCRND8 mice with pre-existing disease; 28 day treatment from 5 months of age
T1 construct: from tissue; host or cells: hemi-brain homogenate of TgCRND8 transgenic mice
T1 sequence (P05067 672-711): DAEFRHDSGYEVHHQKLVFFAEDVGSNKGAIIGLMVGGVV
Description: (§2) Plasma and Cerebral Aβ Content. Hemi-brain samples were homogenized in a buffered sucrose solution, followed by either 0.4% diethylamine/100 mM NaCl for soluble Aβ levels or cold formic acid for the isolation of total Aβ. After neutralization, the samples were diluted and analyzed for Aβ40 and Aβ42 using commercially available kits (BIOSOURCE International). Each hemisphere was analyzed in triplicate and the mean values±SEM reported. Western blot analyses were performed on all fractions using urea gels for Aβ species analyses. Aβ was detected using 6E10 (BIOSOURCE International) and Enhanced Chemiluminenscence (Amersham).
(§3) Cerebral Aβ Content. Hemi-brain samples were homogenized in a buffered sucrose solution, followed by either 0.4% diethylamine/100 mM NaCl for soluble Aβ levels or cold formic acid for the isolation of total Aβ [22]. After neutralization the samples were diluted and analyzed for Aβ40 and Aβ42 using commercially available kits (BIOSOURCE International). Each hemisphere was analyzed in triplicate with the mean±SEM reported. Plasma was diluted and run directly on the ELISA.

TgCRND8 mice [2] = test: Cerebral amyloid plaque burden (anti-Aβ immunostaining, image analysis); type: in vivo, mouse
Description: (§4) Cerebral amyloid burden. Brains were removed and one hemisphere was fixed in 4% paraformaldehyde and embedded in paraffin wax in the mid sagittal plane. To generate sets of systematic uniform random sections, 5 μm serial sections were collected across the entire hemisphere. Sets of sections at 50 μm intervals were used for analyses (10-14 sections/set). Plaques were identified after antigen retrieval with formic acid, and incubation with primary anti-Aβ antibody (Dako M-0872), followed by secondary antibody (Dako StreptABCcomplex/horseradish kit). End products were visualized with DAB and were counter-stained with luxol fast blue. Amyloid plaque burden was assessed with Leco IA-3001 image analysis software interfaced with Leica microscope and Hitachi KP-M1U CCD video camera. Openlab imaging software (Improvision, Lexington, Mass.) was then used to convert micrographs to binary images for plaque number and plaque area determinations. Vascular amyloid burden was defined as amyloid originating from or surrounding blood vessels and was analysed similarly.

TgCRND8 mice [3] = test: Vascular amyloid burden; type: in vivo, mouse; conditions: compared to untreated and epi-inositol treated
Description: as §4

[4] = system: LTP in mouse hippocampal slices; test: Long term potentiation in hippocampal slices with 7PA2 conditioned medium; type: cell-based; conditions: compound treated culture media from plain CHO cells
Description: Long Term Potentiation. […] Swiss Webster mice between the ages of P16 and P26 were anesthetized with isoflurane. […] The hippocampus from each hemisphere was isolated and 350 μm coronal sections were made. […] Once placed in the chamber, slices were continuously perfused by a closed loop containing 15 ml of ACSF to conserve the oligomeric Aβ. […] A bipolar stimulating electrode (World Precision Inst.) was placed in the Schaffer collaterals to deliver baseline stimuli and tetani. A borosilicate glass recording electrode (2-4 MΩ) containing ACSF was positioned approximately 75-200 μm from the stimulating electrode. […] Test stimuli were delivered at 0.05 Hz. To induce LTP, 4 tetani (100 Hz for 1 second) were delivered 5 minutes apart. Field potential responses were amplified 10× using an Axopatch 200B. The data was sampled at 10 kHz and filtered at 2 kHz. Traces were analyzed using pClamp 9.2. The slope of the field potential was estimated using approximately 10-60% of the total response.

TgTauP301L mice = test: Synaptophysin reactivity in TgTauP301L mice; type: in vivo, mouse; conditions: TgTauP301L mice after treatment
Description: Synaptophysin immunohistochemical staining was performed on 3 evenly spaced saggital sections of paraformaldehyde-fixed treated and control mice. Sections were immunolabelled for synaptophysin with anti-synaptophysin IgG (1:40; Roche, Laval, PQ). Digital images were captured and analyzed as described above. Within each section, three randomly chosen 100 μm^2 areas of the CA1 region of the hippocampus were counted for synaptophysin reactive cell bodies and boutons. The results are expressed as the mean of the number of reactive bodies and boutons per 100 μm^2 [29, 30].

TgCRND8 mice [5] = test: Gliosis quantitation (GFAP astrocytes, CD68 microglia); type: in vivo, mouse
Description: Gliosis Quantitation. Five randomly selected, evenly spaced, sagittal sections were collected from paraformaldehyde-fixed and frozen hemispheres of treated and control mice. Sections were immunolabelled for astrocytes with anti-rat GFAP IgG2a (Dako; diluted 1:50) and for microglia with anti-rat CD68 IgG2b (Dako; 1:50). Digital images were captured using a Coolsnap digital camera (Photometrics, Tuscon, Ariz.) mounted to a Zeiss, Axioscope 2 Plus microscope. Images were analysed using Openlab 3.08 imaging software (Improvision, Lexington Mass.).

TgCRND8 mice [6] = test: Survival census (Kaplan-Meier); type: in vivo, mouse; conditions: compared to untreated TgCRND8 mice
Description: (§5) Survival Census: The probability of survival was assessed by the Kaplan-Meier technique, computing the probability of survival at every occurrence of death, thus making it suitable for small sample sizes. For the analyses of survival, 35 mice were used for each treatment group. The Tarone-Ware test was used to assess effects of treatments.
as §5, with “technique” for “technique,”, “30” for “35”

TgCRND8 mice [7] = test: Accelerating rotarod sensorimotor function; type: in vivo, mouse; conditions: treated versus untreated TgCRND8 mice
Description: as §1

Aβ42 [8] = target: T2, Aβ42 (Homo sapiens, UniProt P05067); test: Plasma Aβ42 levels; type: in vivo, mouse; parameters: from tissue; host or cells: plasma of TgCRND8 transgenic mice; conditions: TgCRND8 mice following 28 days of therapy at five months of age
Description: as §2, §3
Target sequence in this assay (P05067 672-713): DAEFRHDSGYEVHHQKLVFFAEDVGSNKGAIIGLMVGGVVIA

Aβ42 [9] = target: T2, Aβ42; test: Cerebral Aβ content: brain Aβ42 (ELISA kit); type: in vivo, mouse; parameters: from tissue; host or cells: hemi-brain homogenate of TgCRND8 transgenic mice; conditions: TgCRND8 mice with pre-existing disease; 28 day treatment from 5 months of age
Description: as §2, §3
Target sequence in this assay (P05067 672-713 limits assumed): as the sequence (P05067 672-713) above

[10] = six month old TgCRND8 mice, 28 days of oral treatment beginning at five months of age
[11] = TgCRND8 mice, 4-month Prophylactic (oral from 6 weeks to 4 months of age)
[12] = TgCRND8 mice, 6-month Prophylactic (oral from 6 weeks to 6 months of age)
[13] = TgCRND8 mice, 28 day course at 5 months of age, vs untreated
[14] = TgCRND8 mice, oral treatment for 28 days (1 month) from 5 months of age, analysed at 6 months

## O[C@H]1[C@H](O)[C@@H](O)[C@H](O)[C@@H](O)[C@@H]1O [scyllo-cyclohexanehexol, 1,3,5/2,4,6-(scyllo-)cyclohexanehexol]
TgCRND8 mice [1]; TgCRND8 mice, administered for 2 months, ending at 7 months of age
  effects on cognition and pathology: Sustained effects both on cognition and pathology were observed
TgCRND8 mice [1]; mouse, in vivo
  Non-Tg littermate behaviour under treatment: not affected
TgCRND8 mice [1]; prophylactic treatment, four months of age
  cognition compared to non-Tg mice: approached that of non-Tg mice
TgCRND8 mice [1]; separate cohort of TgCRND8 mice, compared to non-Tg littermates, data not shown
  probe trial, % time in target quadrant: not statistically different from non-Tg littermates
TgCRND8 mice [1]; [10]
  spatial reference memory performance compared to non-Tg littermates: indistinguishable from that of their non-Tg littermates
  spatial reference memory performance compared to untreated TgCRND8 littermates: significantly better behavioural performance compared to untreated TgCRND8 mice; also recorded: significantly better than untreated TgCRND8 littermates
Aβ40
  effect on brain Aβ40 levels: reduced brain levels of Aβ40 and Aβ42
TgCRND8 mice [2]; TgCRND8 mice at six months of age, hippocampus and cerebral cortex
  amyloid (plaque) burden, immunostaining: significantly decreased amyloid burden and gliosis
TgCRND8 mice [2]; TgCRND8 mice with pre-existing disease, one month treatment from 5 months of age
  plaque burden (percent area of the brain covered with plaques, plaque number): lower plaque burden
TgCRND8 mice [2]; [11]
  Mean Plaque Size: 103 ± 4* μm^2
  Total Plaque Area: 63847 ± 2895 μm^2
TgCRND8 mice [2]; [12]
  Mean Plaque Size: 339 ± 10† μm^2
  Total Plaque Area: 262379 ± 5373† μm^2
TgCRND8 mice [2]; [13]
  percent area of the brain covered by plaques reduction: 14±0.5%
  plaque number reduction: 13±0.3%
  plaque size reduction: 16±0.4%
TgCRND8 mice [2]; [14]
  Mean Plaque Size: 336 ± 6* μm^2
  Total Plaque Area: 420027 ± 14986* μm^2
TgCRND8 mice [3]
  total vascular Aβ load: significantly decreased the total vascular load
[4]
  direct effect on LTP: no direct effect on LTP
TgTauP301L mice
  synaptophysin reactivity: unchanged
TgCRND8 mice [5]; TgCRND8 mice
  percent brain area covered with microgliosis: decreased the percent brain area covered with microgliosis
TgCRND8 mice [5]; TgCRND8 mice at six months of age
  astrogliosis / gliosis, anti-GFAP immunostaining: significantly decreased amyloid burden and gliosis
TgCRND8 mice [5]; TgCRND8 mice, 4- and 6-months of age
  percent brain area covered in astrogliosis: decreased the astrogliotic response to a greater extent at both ages
TgCRND8 mice [6]
  Kaplan Meier cumulative survival: increased survival
TgCRND8 mice [7]
  Rotarod sensorimotor function: no difference
Aβ42 [8]
  Plasma Aβ42 levels: 990 ± 73 pg/mL
Aβ42 [9]
  effect on brain Aβ42 levels: reduced brain levels of Aβ40 and Aβ42
